Experimental data as given in US20260144740A1, “COSMETIC ACTIVE INGREDIENT DERIVED FROM A NON-VOLATILE FRACTION OF CANARIUM EXUDATE AND USES THEREOF” (FLORE SCOLA, priority 2022, published 2026).

Assays:
PCi-SEB human sebocytes = experiment: Anti-sebum effect: intracellular neutral lipids (Nile Red test) in sebocytes, lipogenesis induced by linoleic acid; assay type: cell-based; settings: positive control
Protocol: The aim of this test is to study the anti-sebum effect of the ingredient according to the invention using an in vitro cell model. An extract is prepared according to Example 2.
The procedure is as follows. PCi-SEB human sebocytes derived from induced pluripotent stem (iPS) cells are prepared. The amplification and the maturation of PCi-SEB sebocytes is achieved by incubation in SEB medium for amplification for 2 days then in supplemented SEB medium for maturation for 3 days. The sebocytes are incubated for 24 hours in the presence of the ingredient according to the invention. Lipogenesis is induced by the addition of linoleic acid, then the sebocytes are incubated for 48 hours in the presence of the ingredient according to the invention.
In order to verify efficacy, the following biomarkers are measured: namely, intracellular neutral lipids (Nile Red test) and cellular proteins (Pierce BCA test).
The experimental plan is as follows: • 1 batch (Control): untreated cells incubated in SEB medium (n=3) • 1 batch (EtOH control): untreated cells incubated in SEB medium+EtOH (0.125%)] (n=3) • 3 batches (Test element-treated): cells incubated in medium (SEB+EtOH (0.125%)) and treated with 3 concentrations of test element (n=3) • 1 batch [PC]: cells incubated in SEB medium and treated with TOFA (20 μM)
The ingredient according to the invention was tested at 3 concentrations: C1=5 μg/mL, C2=15 μg/mL and C3=30 μg/mL
The level of neutral lipids was measured in control sebocyte cultures then treated by staining the cells with Nile Red. The values (fluorescence intensity) were reported at the average cellular protein level.
The [Nile-Red] values are expressed in arbitrary units (fluorescence intensity (urf) per mg of cellular protein).

interleukin 6 (IL-6) = experiment: Anti-inflammatory effect: IL-6 release by keratinocytes stimulated by UV (ELISA, related to protein level); assay type: cell-based, human; settings: positive control
Protocol: This test consists of evaluating the production of inflammatory mediators by human keratinocytes in response to irritant stress. The method is based on measuring the release rate of interleukin 6 (IL-6) by keratinocytes cultured in the presence of the ingredient and stimulated by UV light.
Five solutions are tested. Each is obtained by dilution in a culture medium and obtaining a final concentration of 1% ethanol. […] The second, third and fourth solutions differ in the concentration of the final residue (respectively 1.4 μg/mL, 3.5 μg/mL and 7.0 μg/mL). The fifth solution is dexamethasone (Dexa) (SIGMA Ref D1756) which is tested at 100 µM as a positive control.
On D0, 48 hours after seeding, the cells are rinsed with phosphate-buffered saline (PBS) and then exposed to UVB through the PBS. Immediately after irradiation, the PBS is replaced by the DMEM (Dulbecco's Modified Eagle Medium) test medium comprising the solution to be tested. The cells are returned to 37° C. and incubated for 24 hours.
On D1 (T 24 h), the incubation media are collected and the level of IL-6 is measured using the ELISA assay kit (IL-6 HIGH SENSITIVITY ELISA KIT, ENZO). At the same time, the corresponding cell layers are rinsed with Hank's Balanced Salt Solution (HBSS) and processed for cellular protein assay. A NaOH solution is added to each sample. After incubation, the cell extracts are collected and frozen at −20° C. to await assay with the BCA Protein Assay kit (PIERCE®).
The crude levels of IL-6 (pg per sample) are deduced by interpolation from the standard curve established with the IL-6 standard in the kit. The average of the IL-6 levels is calculated for each sample.
The protein level (μg per sample) is deduced by interpolation from the standard curve established with a bovine serum albumin standard in order to express the IL-6 level in relation to the average protein level. The average level is calculated for each sample.
The average IL-6 level is related to the average protein level. […]

Row | SMILES | Neutral lipids - Nile Red, Mean, per mg of cellular protein (PCi-SEB human sebocytes; 20 μM) [URF/mg prot.] | Nile Red Test, Mean (fluorescence intensity) (PCi-SEB human sebocytes; 20 μM) | Lipogenic effect (%) (PCi-SEB human sebocytes; 20 μM, vs. EtOH control) | activity at 20 µM (PCi-SEB human sebocytes; Homo sapiens, read-out: Neutral lipids (% of controlEtOH)) [%] | Induced IL-6 (interleukin 6 (IL-6); 100 μM, 24 h after UVB) [pg/mg prot.] | Induced IL-6 (%), with respect to IL-6 induced in the ethanol control (interleukin 6 (IL-6); 100 μM, 24 h after UVB) [%] | inhibition of UV-induced IL-6 release (interleukin 6 (IL-6); same experimental conditions) [%]
1 | CCCCCCCCCCCCCCOc1ccc(C(=O)O)o1 [TOFA, 5-(tetradecyloxy)-2-furoic acid] | 7.01 | 1679 | −75 | 25 | – | – | –
2 | C[C@@H]1C[C@H]2[C@@H]3CCC4=CC(=O)C=C[C@]4(C)[C@@]3(F)[C@@H](O)C[C@]2(C)[C@@]1(O)C(=O)CO [Dexa, dexamethasone] | – | – | – | – | 105.10 | 8 | 92
